# Square brackets hold non-standard residues; d marks the D form. Ends that are not written are not given here. Peptide text beside a SMILES is read from it.
# Legend:
# MDA-MB-231 cells = experiment: Cell viability (Cell-Titer Glo) in MDA-MB-231 breast cancer cells; format: cell-based, human; conditions: overnight, different concentrations
# Method: (§1) Human cell lines including HeLa, HEK293, MCF7, MDA-MB-231, CHO-K1, OPM-2, and WI-38 were obtained from American Type Culture Collection. AML2 and AML3 cells were purchased from Deutsche Sammlung von Mikroorganismen und Zellkulturen. HCT116 p53+/+ and p53−/− cells were kindly given by Dr. Bert Vogelstein. Primary human foreskin fibroblasts (HFF) were obtained from Dr. Mark Stinski. […] MDA-MB-231 and OPM-2 cells were cultured in RPMI-1640 (Gibco) containing 10% FBS and 1% penicillin/streptomycin. All cells were routinely maintained in a 37° C. incubator with 5% CO2.
# (§2) Cells were plated in clear-bottomed white walled 96-well plates (Corning) and incubated overnight. Cells were treated with indicated peptides in 1% FBS-containing media for overnight or indicated timings at 37° C. Cell viability was measured with CellTiter-Glo reagent (Promega) according to the manufacturer's instructions. For cytotoxicity assay, cells were plated in black walled 96-well plates (Corning) to allow them to adhere overnight. Upon treatment with a pan-caspase inhibitor, z-VAD-Fmk ([…]) (Sigma) and subsequent treatment with LTV-tagged peptides, cytotoxicity induced was determined by CellTox cytotoxicity assay (Promega) 30 minutes after addition of peptides according to the manufacturer's instructions. Luminescence was determined using an Infinite 200 multiplate reader (Tecan).
# MCF7 cells [1] = experiment: Cell viability (Cell-Titer Glo) in MCF7 breast cancer cells; format: cell-based, human; conditions: overnight, different concentrations
# Method: as §1, §2
# HCT116 (p53 KO) cells [2] = experiment: Cell viability (Cell-Titer Glo) in HCT116 (p53 KO); format: cell-based, human; conditions: overnight, various concentrations
# Method: as §1, §2
# HCT116 (p53 WT) cells [3] = experiment: Cell viability (Cell-Titer Glo) in HCT116 (p53 WT); format: cell-based, human; conditions: overnight, various concentrations
# Method: as §1, §2
# HCT116 (p53 KO) cells [4] = experiment: Time-lapse DIC live cell imaging, HCT116 (p53 KO); format: cell-based, human; conditions: 30 μM, within minutes
# Method: (§3) HCT116 (p53 WT) and HCT116 (p53 KO) cells were cultured on glass slides overnight, treated with vehicle control (0.5% dimethyl sulfoxide (DMSO)) or the indicated FGF peptides (30 μM). Time-lapse DIC imaging highlights dynamic morphological changes in treated HCT116 cells by spinning disk confocal microscopy. […] In contrast, FGF-BR peptide rapidly induces drastic changes to the cell morphology with rupturing of the plasma membrane accompanied with damages to the nuclear membrane and abnormalities to the nucleolus in both cell types. (B) cytotoxicity fluorescence plots of breast cancer cells MCF7 showing the effect of pan-caspase inhibitor z-VAD-Fmk on cells treated with LTV-tagged BR peptide. LTV is a breast cancer cell targeting peptide. MCF7 cells were incubated with or without z-VAD-Fmk (for 90 min) and then with indicated LTV-tagged peptides (30 μM) for thirty minutes at 37° C. Cells treated with LTV-X13 peptide (SEQ ID NO: 14) or vehicles, DMSO (0.5%), were used as negative controls. Treated cells were subjected to the cytotoxicity assay as described in Example 9—Materials and Methods. Data representative of at least three independent experiments performed in triplicate were shown with values expressed as mean±SD.
# (§4) The mechanism of cell death induced by the HEXIM1 BR peptide was examined. […]
# HCT116 (p53 WT) cells [5] = experiment: Time-lapse DIC live cell imaging, HCT116 (p53 WT); format: cell-based, human; conditions: 30 μM, within minutes
# Method: as §3, §4
# [6] = tested on: human foreskin fibroblasts (HFF); experiment: Cell viability (Cell-Titer Glo) in human foreskin fibroblasts; format: cell-based; conditions: HFF normal fibroblasts; overnight, various concentrations
# Method: as §1, §2
# HEK293 cells = experiment: Cell viability (Cell-Titer Glo) in HEK293 cells; format: cell-based, human; conditions: HEK293 normal cells; overnight, various concentrations
# Method: as §1, §2
# HeLa cells = experiment: Cell viability (Cell-Titer Glo) in HeLa cells; format: cell-based, human; conditions: overnight, various concentrations
# Method: as §1, §2
# MCF7 cells [7] = experiment: CellTox cytotoxicity assay with or without z-VAD-Fmk; format: cell-based; conditions: 30 μM, thirty minutes at 37° C.
# Method: as §3, with “LTV is a breast cancer cell targeting peptide. MCF7 cells were incubated with or without z-VAD-Fmk (for 90 min) and then with indicated LTV-tagged peptides (30 μM) for thirty minutes at 37° C. Cells treated with LTV-X13 peptide (SEQ ID NO: 14) or vehicles, DMSO (0.5%), were used as negative controls. Treated cells were subjected to the cytotoxicity assay as described in Example 9—Materials and Methods.” left out
# as §2, with “Cells were treated with indicated peptides in 1% FBS-containing media for overnight or indicated timings at 37° C.” left out, “For cytotoxicity assay, cells were plated in black walled 96-well plates (Corning) to allow them to adhere overnight.” left out
# NPM [8] = target: T1, NPM (Homo sapiens, UniProt P06748); experiment: Immunofluorescence of NPM sub-cellular localization, HCT116 (p53 KO); format: cell-based; conditions: 30 μM
# T1 construct: FGF-tagged BR peptide alters the sub-cellular localization and protein level of endogenous NPM; endogenous in cells; host or cells: HCT116 (p53 WT) and HCT116 (p53 KO)
# Method: (§5) (A) representative immunofluorescence images showing the sub-cellular localization of α-NPM (bar represents 10 μm). HCT116 (p53 WT) and HCT116 (p53KO) cells were cultured on glass slides overnight, treated with FGF-X13 or FGF-BR (30 μM). Cells treated with FGF-X13 peptide or vehicle, DMSO (0.5%), was used as controls. Treated cells were immunostained with an anti-NPM antibody and analyzed by laser scanning confocal microscopy (Zeiss). Nuclei were visualized by staining with 4′,6-diamidino-2-phenylindole (DAPI).
# (§6) For staining with anti-NPM, cultured cells were fixed in 10% neutral buffered formalin (Sigma) for 10 min, and then in methanol for 10 min, washed in PBS and incubated with blocking buffer (PBS containing 0.5% bovine serum albumin) for 1 hour prior to incubation with a mouse anti-NPM antibody (Invitrogen) in blocking buffer for overnight at 4° C. Cells were then incubated with Alexa Fluor 488-conjugated secondary antibody (Jackson Immuno Research Laboratories) for 1 hour, washed three times with PBS and counterstained with 4′,6-diamidino-2-phenylindole (DAPI)-containing mounting solution (Vectashield). Stained cells were examined with a LSM 510 confocal microscope using a 63× objective lens (Zeiss).
# NPM [9] = target: T1, NPM; experiment: Immunofluorescence of NPM sub-cellular localization, HCT116 (p53 WT); format: cell-based; conditions: 30 μM
# Method: as §5, §6
# [10] = tested on: differentiated adipose cells (from 3T3)
# Method: (§7) 2.5×10^4 cells/ml of mouse fibroblast cells 3T3 were cultured in gelatin coated plates in Dulbecco's Modified Eagle Medium (DMEM) supplemented with 10% fetal bovine serum (FBS) and 1% penicillin/streptomycin (Gibco) to reach 100% confluent. The cells were then maintained at 100% confluency by supplementing with fresh media in a 37° C. incubator with 5% CO2 for 3 days. For induction, cells were then cultured in DMI Induction Media (which is DMEM supplemented with 10% fetal bovine serum, 1% penicillin/streptomycin, 0.1% 3-isobutyl-1-methylxanthine (sigma), 0.1% insulin (sigma) and 0.1% dexamethasone (sigma)) for 48 hours. The cells were then cultured in Insulin Induction Media (which is DMEM supplemented with 10% fetal bovine serum, 1% penicillin/streptomycin and 0.1% insulin). The insulin induction media was changed every 2 days until the cells were differentiated to adipose cells.
# (§8) A D-form BR peptide with the sequence of [sequence] was tagged to a fat tissue targeting peptide of the sequence [sequence] (ATS peptide, SEQ ID NO: 39) to generate the ATS-BRD peptide of the sequence [sequence]([sequence])D (SEQ ID NO: 40). Both undifferentiated 3T3 cells and differentiated adipose cells were treated with the ATS-BRD peptide. ATS-tagged KLAD peptide was used as a positive control.
# [11] = tested on: undifferentiated 3T3 mouse fibroblast cells
# Method: as §7, §8
# T1 sequence (P06748 whole entry): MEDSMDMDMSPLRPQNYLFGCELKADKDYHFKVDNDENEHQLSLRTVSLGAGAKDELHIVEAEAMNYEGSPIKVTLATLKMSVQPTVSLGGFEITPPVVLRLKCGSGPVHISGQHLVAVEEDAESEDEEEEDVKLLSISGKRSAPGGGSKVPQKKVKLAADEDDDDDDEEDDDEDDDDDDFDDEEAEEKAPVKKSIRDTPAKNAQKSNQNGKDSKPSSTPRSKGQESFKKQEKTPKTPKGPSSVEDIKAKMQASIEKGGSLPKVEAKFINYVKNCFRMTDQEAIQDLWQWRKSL
compound,measurement,setting,value
"QLGRRRHRRRPSRRRRHW (QLGRRRHRRRPSKKKRHW) [BR-RRR12, BR mutant in which all six HDM2 ubiquitinating lysine residues were mutated to arginine]",effect on cell viability,MDA-MB-231 cells,remained highly viable
same,effect on cell viability,MCF7 cells [1],no effect on cell viability
FGF-BR-ILAA: FGF-fused BR peptide with KHRR motif mutated to ILAA (AAVALLPAVLLALLAPQLGKKILAARPSKKKRHW),cell death / cell viability,HCT116 (p53 KO) cells [2],still maintained its killing ability
same,cell death / cell viability,HCT116 (p53 WT) cells [3],still maintained its killing ability
LTV-BR-RRR12: breast cancer targeting peptide LTV fused to BR-RRR12 (LTVSPWYGCGQLGRRRHRRRPSRRRRHW),effect on cell viability,MDA-MB-231 cells,anti-proliferation effects
same,effect on cell viability,MCF7 cells [1],anti-proliferation effects
LTV-X13: LTV-tagged X13 negative control peptide (LTVSPWYGCGMPFSTGKRIMLGE) [reference compound],effect on cell viability,MDA-MB-231 cells,no effects were detected
same,effect on cell viability,MCF7 cells [1],no effects were detected
X13: untagged negative control peptide (MPFSTGKRIMLGE) [reference compound],effect on cell viability,MDA-MB-231 cells,no effect on cell viability
same,effect on cell viability,MCF7 cells [1],no effect on cell viability
"QLGKKKHRRRPSKKKRHW (listed as Homo sapiens) [BR, untagged HEXIM1 basic region peptide]",effect on cell viability,MDA-MB-231 cells,remained highly viable
same,effect on cell viability,MCF7 cells [1],no effect on cell viability
KLA (KLAKLAKKLAKLAK) [reference compound],effect on cell viability,MDA-MB-231 cells,non-specific killing
"AAVALLPAVLLALLAP [FGF, cell membrane-translocating peptide derived from Kaposi fibroblast growth factor]",morphological changes,HCT116 (p53 KO) cells [4],No effects were detected
same,morphological changes,HCT116 (p53 WT) cells [5],No effects were detected
CC(C)C[C@H](NC(=O)[C@H](C)NC(=O)[C@H](CC(C)C)NC(=O)[C@H](CC(C)C)NC(=O)[C@@H](NC(=O)[C@H](C)NC(=O)[C@@H]1CCCN1C(=O)[C@H](CC(C)C)NC(=O)[C@H](CC(C)C)NC(=O)[C@H](C)NC(=O)[C@@H](NC(=O)[C@H](C)NC(=O)[C@H](C)N)C(C)C)C(C)C)C(=O)N[C@@H](CC(C)C)C(=O)N[C@@H](C)C(=O)N1CCC[C@H]1C(=O)N[C@@H](CCC(N)=O)C(=O)N[C@@H](CC(C)C)C(=O)NCC(=O)N[C@@H](CCCCN)C(=O)N[C@@H](CCCCN)C(=O)N[C@@H](CCCCN)C(=O)N[C@@H](Cc1c[nH]cn1)C(=O)N[C@@H](CCCNC(=N)N)C(=O)N[C@@H](CCCNC(=N)N)C(=O)N[C@@H](CCCNC(=N)N)C(=O)N1CCC[C@H]1C(=O)N[C@@H](CO)C(=O)N[C@@H](CCCCN)C(=O)N[C@@H](CCCCN)C(=O)N[C@@H](CCCCN)C(=O)N[C@@H](CCCNC(=N)N)C(=O)N[C@@H](Cc1c[nH]cn1)C(=O)N[C@@H](Cc1c[nH]c2ccccc12)C(=O)O [FGF-BR] (H-AAVALLPAVLLALLAPQLGKKKHRRRPSKKKRHW-OH),cytotoxicity (cell viability),[6],Comparable cytotoxicity
same,cytotoxicity (cell viability),HEK293 cells,Comparable cytotoxicity
same,cytotoxicity (cell viability),HeLa cells,Cytotoxicity was also observed
CC(C)C[C@H](NC(=O)[C@H](CCC(N)=O)NC(=O)CNC(=O)[C@H](CS)NC(=O)CNC(=O)[C@H](Cc1ccc(O)cc1)NC(=O)[C@H](Cc1c[nH]c2ccccc12)NC(=O)[C@@H]1CCCN1C(=O)[C@H](CO)NC(=O)[C@@H](NC(=O)[C@@H](NC(=O)[C@@H](N)CC(C)C)[C@@H](C)O)C(C)C)C(=O)NCC(=O)N[C@@H](CCCCN)C(=O)N[C@@H](CCCCN)C(=O)N[C@@H](CCCCN)C(=O)N[C@@H](Cc1c[nH]cn1)C(=O)N[C@@H](CCCNC(=N)N)C(=O)N[C@@H](CCCNC(=N)N)C(=O)N[C@@H](CCCNC(=N)N)C(=O)N1CCC[C@H]1C(=O)N[C@@H](CO)C(=O)N[C@@H](CCCCN)C(=O)N[C@@H](CCCCN)C(=O)N[C@@H](CCCCN)C(=O)N[C@@H](CCCNC(=N)N)C(=O)N[C@@H](Cc1c[nH]cn1)C(=O)N[C@@H](Cc1c[nH]c2ccccc12)C(=O)O [LTV-BR] (H-LTVSPWYGCGQLGKKKHRRRPSKKKRHW-OH),cytotoxicity fluorescence,MCF7 cells [7],significant cytotoxic effect
same,cytotoxicity (cell viability),[6],does not show such non-specific cytotoxicity
"FGF-X13: negative control peptide, FGF-tagged X13 (AAVALLPAVLLALLAPMPFSTGKRIMLGE) [reference compound]",sub-cellular localization of NPM,NPM [8],Normal nucleolar localization of NPM
same,sub-cellular localization of NPM,NPM [9],Normal nucleolar localization of NPM
same,cell death / cell viability,HCT116 (p53 KO) cells [2],no effects
same,cell death / cell viability,HCT116 (p53 WT) cells [3],no effects
CKGGRAKDCGG(QLGKKKHRRRPSKKKRHW)D (CKGGRAKDCGG[dQ][dL]G[dK][dK][dK][dH][dR][dR][dR][dP][dS][dK][dK][dK][dR][dH][dW]; cysteine pairing not given here) [ATS-BRD],cytotoxic effect (cell viability),[10],significant cytotoxic effect
same,cytotoxic effect (cell viability),[11],no cytotoxic effect
FGF-BR-RRR12: FGF-fused BR peptide with all six HDM2 ubiquitinating lysine residues mutated to arginine (AAVALLPAVLLALLAPQLGRRRHRRRPSRRRRHW),cell death / cell viability,HCT116 (p53 KO) cells [2],stronger cell toxicity when compared to the wild-type FGF-BR peptide
same,cell death / cell viability,HCT116 (p53 WT) cells [3],stronger cell toxicity when compared to the wild-type FGF-BR peptide
"CC(C)C[C@H](NC(=O)[C@H](CCCCN)NC(=O)CNC(=O)[C@H](CS)NC(=O)CNC(=O)[C@H](Cc1ccc(O)cc1)NC(=O)[C@H](Cc1c[nH]c2ccccc12)NC(=O)[C@@H]1CCCN1C(=O)[C@H](CO)NC(=O)[C@@H](NC(=O)[C@@H](NC(=O)[C@@H](N)CC(C)C)[C@@H](C)O)C(C)C)C(=O)N[C@@H](C)C(=O)N[C@@H](CCCCN)C(=O)N[C@@H](CC(C)C)C(=O)N[C@@H](C)C(=O)N[C@@H](CCCCN)C(=O)N[C@@H](CCCCN)C(=O)N[C@@H](CC(C)C)C(=O)N[C@@H](C)C(=O)N[C@@H](CCCCN)C(=O)N[C@@H](CC(C)C)C(=O)N[C@@H](C)C(=O)N[C@@H](CCCCN)C(=O)O [LTV-KLA, reference compound] (H-LTVSPWYGCGKLAKLAKKLAKLAK-OH)",cytotoxicity (cell viability),[6],non-specific killing
